Here are results for 8 molecules from patent US8937096B2, “Use of benzo-fused heterocyle sulfamide derivatives for the treatment of mania and bipolar disorder” (priority 2005, dated 2015).

Where two headings read alike, the source gives them in different places.

One may read the ED50 as the midpoint of the dose-response relation.

One assay concerns CH3/HeJ mice. Briefly: Tail Suspension Test (Acute). In kind it is in vivo, mouse. The settings on record: for ED50: Mus musculus, po, 7 min; for Immobility Emax % of C / Mobility Emax % of C: p.o., CH3/HeJ mice, 7-min session. How it is done: In the tail suspension test (TST) for evaluating compounds for anti-depressant activity, mice are suspended by their tails to a metal or plastic rod using clip or scotch tape. The test is usually quite short, 5-7 min, and the amount of time the mice spend immobile is recorded either manually or with an automated device. Agents which have antidepressant activity, decrease the duration of immobility of mice in this test.
The basic apparatus for the tail suspension assay consisted of a yellow plastic chamber (91×45×10 cm) divided for four arenas 25, 20, 20 and 25 cm wide separated by yellow plastic walls 0.75 cm thick. Mice were suspended by their tails using a rubber clip (7 cm long) attached to the plastic rod that was placed on the top of a testing chamber half way through its deep dimension. Each experimental session was videotaped and analyzed for four animals in the real time by computer software (“Depression Scan” Clever Sys Inc.). The computer justification of immobility was calibrated with the use of animals dosed with lorazepam while justification of movement was calibrated with the high dose of desipramine treated animals. […] The settings were adjusted separately for dark (CH3/HeJ and C57BI/6J strains) and white mice (Balb/cJ and A/J strains). A yellow background was used for dark mice and a blue background was used to record movements of white mice.
The ability of a test compound to decrease the duration of immobility, or increase mobility was measured using the TST procedure described above.
Data were analyzed using GraphPad Prism software (GraphPad Software, Inc. San Diego, Calif.). For the comparison of the effect of different doses for various drugs on immobility in the TST one-way analyses of variance (ANOVA) were used followed by Dunnett's multiple comparison test. […] The ED50 and Emax values were compared using two-way ANOVA and Bonferroni post-hoc test.
Positive controls included duloxetine (DLX), venlafaxine (VLX) and desipramine (DMI) which were dissolved in 0.5% methylcellulose and lorazepam (LOR) which was suspended in 0.5% of methylcellulose in water by sonication. All drugs and vehicles were administered orally (p.o.) by gavage in a volume of 10 mL/kg.
The mice were ordered 5 weeks old and at the beginning of experiment their weight was 20±5 g. Animals were housed in groups of four in plastic cages at an ambient temperature of 21° C. to 23° C. with an automated 12/12 hours light/dark cycle and access to water and a commercial rodent food ad libitum.
Each experiment consisted of seven treatment groups with four animals per group. A total of 28 animals per experiment were used. Every two consecutive experiments (1 & 2, 3 & 4, 5 & 6 and 7 & 8) were exact replicas of each other. […] One treatment group of four animals in each experiment was a vehicle treated group. In addition to the vehicle treated group, the effects of DMI at 6 mg/kg, 12 mg/kg, 30 mg/kg, 60 mg/kg and 120 mg/kg and LOR at 5 mg/kg were tested in experiments 1 and 2. […] In experiments 5 and 6 the effects of DLX at 6 mg/kg, 12 mg/kg, 30 mg/kg, 60 mg/kg, 120 mg/kg and LOR at 5 mg/kg were tested.

In assay [1] the test system is hippocampal kindled seizures. In words: Rat Hippocampal Kindling Test (Interruption of Kindled State). To be noted: reference drugs; suppression at doses associated with toxicity. In kind it is in vivo. The procedure:
In the present rapid hippocampal kindling model adult male Sprague-Dawley rats (300-400 g) were surgically implanted with bipolar electrodes placed in the hippocampus. […] One week later, the rats received 2-3 supra-threshold stimulations delivered every 30 min before treatment with test compound, to ensure stability of the behavioral seizure stage and after-discharge duration. Fifteen minutes after the last stimulation, a single dose of vehicle or test compound was administered i.p. (intraperitoneally). After 15 min, each rat was then stimulated every 30 min for 3 to 4 h. After each stimulation, individual seizure scores and after-discharge durations were recorded. The group mean±SEM were calculated for each parameter. Eight rats per dose and a minimum of four doses were used to establish an ED50 value. Efficacy was measured as the ability of a compound to modify the seizure score (severity of spread) and after-discharge duration (ADD; excitability) of the generalized seizures.
Thus, according to the theories presented in current literature (Ghaemi, S. N., Boiman, E. E., and Goodwin, F. K., Soc. of Bio. Psychiatry, (1999), vol. 45, pp 137-144; Stoll, A. L., and Severus, W. E., Harvard Rev. Psychiatry, July/August (1996), Vol. 4, No. 2, pp 77-89) a decrease in seizure score and/or ADD may also be predictive of the ability of a test compound to treat the cycling associated with bipolar disorder.

For another assay, the system named is dominant rats. Briefly: Dominant-Submissive Relations (DSR) assay: Reduction of Dominant Behavior Model (RDBM) of mania. In kind it is in vivo, rat. The procedure:
(§1) The DSR assay is divided into two models: Reduction of Dominant Behavior Model (RDBM) of mania and Reduction of Submissive Behavior Model (RSBM) of depression. The RDBM, wherein the dominant animals are treated with test compound, is predictive of the ability of the test compound to treat mania. The RSBM, wherein the submissive animals are treated with test compound, is predictive of the ability of the test compound to treat depression.
(§2) Male Sprague Dawley rats (140 to 160 g) from Charles River Laboratories Wilmington, Mass. were used in this assay. Shipments of rats were received at two-week intervals. Each shipment went through five-day quarantine, one-week acclimation period, and one-week selection process, followed by five-weeks of drug or vehicle treatment to those pairs selected.
(§3) Rats were housed four per cage. Access to food was restricted to one hour per day after testing on Monday through Thursday. After testing on Friday, rats had free access to food until being fasted again on Sunday. At no time were the rats deprived of water. The food deprivation periods used had little effect on weight gain as the average weight of rats was about 300 g at the end of the study. At the conclusion of experiment rats were sacrificed by decapitation, the trunk blood and brains were collected for in vitro experiments and drug concentration measurements.
(§4) The basic testing apparatus consisted of two chambers connected with a tunnel only large enough to allow one rat to pass through at a time. On the floor, at the mid-point of the tunnel was a container of sweetened milk. This basic apparatus was replicated, so that a total of four pairs of rats can be video tracked simultaneously. The camera can distinguish rats marked by different colors. Thus, the rats' heads were colored for the purpose of video tracking, red in one cage and yellow in the other cage. Only one animal at a time can have comfortable access to the feeder, but both animals can drink milk during the five-minute daily session. During the five-minute daily sessions, time spent in the feeder zone by each rat was recorded by the video tracking software and saved into a text file.
The test began with a random assignment of rats into pairs. Each member of a pair was placed in an opposite chamber of the testing apparatus. The time spent in the feeder zone by each animal was recorded. During the first week (five days) of testing the animals habituate to the new environment. Dominance was assigned to the animal with the highest score during the second week of testing if three criteria were achieved. First, there must have been a significant difference (two-tailed t-test, P<0.05) between the average daily drinking scores of both animals. Second, the dominant animal score must have been at least 25% greater than the submissive animal's score. Finally, there must have been no “reversals” during the pair selection week where the putative submissive rat out-scored its dominant partner on isolated occasions. Ideally there were minimal reversals during the acclimation week as well. About twenty-five to thirty-three percent of the initial animal pairs achieved these criteria and only these pairs were continued in the study.
(§5) Significant differences between time spent on the feeder by dominant and submissive rats were determined by ANOVA using GraphPad Prism software (GraphPad Software, Inc. San Diego, Calif.) followed by a two-tailed t-test (P<0.05). Comparisons were made between treatment groups using normalized dominance level values in paired animals. The dominance level is a value that measures social relation between paired subjects. Dominance level (DL)=FTD−FTS where FTD is the feeder time of dominant rats and FTS is the feeder time of submissive rats. The normalization was conducted according to the formula: Dominance Level(week n in %)=(Dominance Level(week n))/(Dominance Level(week 2) […]

Another assay concerns Sprague Dawley rats. Briefly: Forced Swim Test (Acute). In kind it is in vivo, rat. The procedure:
The Forced Swim test (FST) is a commonly used procedure to screen compounds for possible antidepressant properties. This test is also known as the behavioral despair test. Rodents placed in […] tanks filled with water present a wide variety of escape or immobility behaviors. Antidepressant drugs from different classes markedly increase escape behaviors and/or decrease latency or duration of immobility.
Venlafaxine and desipramine were dissolved in water. All drugs and their vehicles were administered orally (p.o.) by gavage in a volume of 5 mL/kg.
Male Sprague Dawley rats (140 to 160 g) from Charles River Laboratories Wilmington, Mass. were used. The animals went through a five-day quarantine period before being subjected to the experimental procedure.
Animals were housed in groups of four in plastic cages at an ambient temperature of 21° C. to 23° C. with an automated 12 hour light/dark cycle and access to water and commercial rodent food ad libitum. Animals were not handled more than for the routine bedding change prior to pre-test swim session.
Each experiment consisted of seven treatment groups with n=4 animals per group. A total of 28 animals per experiment were used. Two consecutive experiments (1 and 2, 3 and 4, and 5 and 6) were exact replicas of each other. […] One treatment group of n=4 animals in each experiment was a vehicle treated group. […] In experiments 5 and 6 the effects of venlafaxine and maprotyline at 12 mg/kg, 30 mg/kg, and 60 mg/kg were tested.
The basic apparatus consisted of a cylinder (46 cm tall×˜20 cm diameter) filled with water to 30 cm deep, at a temperature of 25±1° C. The automated version of the FST was used to perform the experiments. Plumbing for automatic filling and emptying water connected the four cylinders. Cylinders were placed in the dividing chambers 25 cm wide to separate animals visually. Each 5-minute experimental session was videotaped and analyzed in real time by computer software (Clever Systems, Inc.) for four animals at a time. The immobility, swimming, climbing and escape times were recorded by the software. The four activities are defined as follow. Immobility: the animal floats motionlessly or makes only those movements necessary to keep its head above water; Climb: the animal vigorously moves vertically while scratching the wall around the cylinder; Swim: the animal moves horizontally around in the cylinder more than necessary to keep its head above water; and Escape: sum of all vigorous active movements.
The ability of a test compound to decrease the duration or frequency of immobility, or changes in swimming, climbing and escape times, was measured using the FST procedure described above. […] The analysis of the results in the studies described was focused on the immobility time during 5-minute test session.
There were two swim sessions in each experiment. First, a pre-test swim session for 15 minutes was performed. Following 48 hours later was a test session of 5-minute duration. Upon completion of a swim session, each animal was placed under a heat lamp in a cage with soft bedding for approximately 15 minutes to prevent hypothermia.
Animals were pre-treated with a vehicle or test compound after completing the pre-test swim session, then 24 hours later and then shortly prior to the 5-minute test session; i.e., three injections were given to each animal between the two swim sessions that occurred on 3 consecutive days.
Data were analyzed using GraphPad Prism software (GraphPad Software, Inc. San Diego, Calif.). For the comparison of the effect of different doses for various drugs on immobility in the FST one-way ANOVA was used followed by Dunnett's multiple comparison test. […] The ED50 and Emax values were statistically compared using two-tail t-test.

The subject of a further assay is submissive rats. In words: Dominant-Submissive Relations (DSR) assay: Reduction of Submissive Behavior Model (RSBM) of depression. In kind it is in vivo, rat. The procedure: as §1, §2, §3, §4
The test began with a random assignment of rats into pairs. Each member of a pair was placed in an opposite chamber of the testing apparatus. The time spent in the feeder zone by each animal was recorded. During the first week (five days) of testing the animals habituate to the new environment. Dominance was assigned to the animal with the highest score during the second week of testing if three criteria were achieved. First, there must have been a significant difference (two-tailed t-test, P<0.05) between the average daily drinking scores of both animals. Second, the dominant animal score must have been at least 25% greater than the submissive animal's score. Finally, there must have been no “reversals” during the pair selection week where the putative submissive rat out-scored its dominant partner on isolated occasions. Ideally there were minimal reversals during the acclimation week as well. About twenty-five to thirty-three percent of the initial animal pairs achieved these criteria and only these pairs were continued in the study. […]
as §5

In the case of `CNCC[C@H](Oc1cccc2ccccc12)c1cccs1` [DLX, duloxetine], the ED50 in the assay with CH3/HeJ mice (read-out: Immobility ED50) was determined as 31.4 mg/kg. Further, the median effective dose (ED50) with CH3/HeJ mice (read-out: Mobility ED50) amounted to 61.5 mg/kg. Further, in the assay with CH3/HeJ mice, the “Immobility Emax % of C” value is recorded as 80.4 % of C and the “Mobility Emax % of C” value is on record as 175.5 % of C.

Consider `CCC1(C)CC(=O)NC1=O` (centres unmarked) [Ethosuximide], for which, in assay [1], the “seizure activity in the hippocampal kindling model” value is reported as “ineffective”.

Take `[Cl-].[Li+]` [lithium chloride, reference compound]: the “dominance level effect vs control” value with dominant rats (100 mg/kg) is listed as “significantly different from control only after the third week of treatment”.

For `CCCC(CCC)C(=O)[O-].[Na+]` [sodium valproate, reference compound], in the assay with dominant rats (30 mg/kg i.p. QD), the dominance level entry is “decreased dominance level after the second week of treatment”. For the same molecule, the “difference between dominant and submissive rats lost” value in the assay on dominant rats (dominant rats treated i.p. QD at 30 mg/kg) was “lost after first week of treatment”. Also, the “permissiveness of the treated dominant rats” value with dominant rats (treated dominant rats permitted submissive partners to increase time on the feeder) is “observed to increase”.

For the molecule `O=C1Nc2ccc(Cl)cc2C(c2ccccc2Cl)=NC1O` (centres unmarked) [Lorazepam, lorazepam], the “effect on the rats' immobility time” value in the assay with Sprague Dawley rats (1 mg/kg p.o., negative control) is “no significant effect”.

For `CNCCC(Oc1ccc(C(F)(F)F)cc1)c1ccccc1` (centres unmarked) [fluoxetine, reference compound], the “submissiveness during first week of treatment” value with submissive rats (fluoxetine 10 mg/kg i.p., Compound #8 treated groups p.o.) is “increased submissiveness during first week of treatment”. Besides, the “significant difference between dominant and submissive rats lost” value in the assay with submissive rats (submissive rats treated i.p. at 10.0 mg/kg) was “lost after third week of treatment”.

Turning to `CNCCCC12CCC(c3ccccc31)c1ccccc12` [maprotyline], the “doses at which effect on immobility was statistically significant vs vehicle” value with Sprague Dawley rats (p.o.) is 30 mg/kg and 60 mg/kg.

With `CNCCCN1c2ccccc2CCc2ccccc21` [DMI, desipramine], in the assay with Sprague Dawley rats (p.o.), the “Emax (immobility) in the FST” value came out at 50.0 ± 8.4 s; the “doses at which effect on immobility was statistically significant vs vehicle” value is 6 mg/kg, 12 mg/kg, 30 mg/kg, and 60 mg/kg. Besides, in the assay on CH3/HeJ mice, the “Immobility Emax % of C” value is reported as 38.5 % of C and the “Mobility Emax % of C” value was 195.7 % of C.
